Test results from US20090124607A1, “Novel Bicyclic Sulfonamides for Use as Glucocorticoid Receptor Modulators in the Treatment of Inflammatory Diseases” (priority 2005, published 2009).

Biological target: T1, recombinant human GR (Homo sapiens, UniProt P04150)
T1 construct: purchased Panvera/Invitrogen P2812 (kit P2893)
T1 sequence (P04150 1-777): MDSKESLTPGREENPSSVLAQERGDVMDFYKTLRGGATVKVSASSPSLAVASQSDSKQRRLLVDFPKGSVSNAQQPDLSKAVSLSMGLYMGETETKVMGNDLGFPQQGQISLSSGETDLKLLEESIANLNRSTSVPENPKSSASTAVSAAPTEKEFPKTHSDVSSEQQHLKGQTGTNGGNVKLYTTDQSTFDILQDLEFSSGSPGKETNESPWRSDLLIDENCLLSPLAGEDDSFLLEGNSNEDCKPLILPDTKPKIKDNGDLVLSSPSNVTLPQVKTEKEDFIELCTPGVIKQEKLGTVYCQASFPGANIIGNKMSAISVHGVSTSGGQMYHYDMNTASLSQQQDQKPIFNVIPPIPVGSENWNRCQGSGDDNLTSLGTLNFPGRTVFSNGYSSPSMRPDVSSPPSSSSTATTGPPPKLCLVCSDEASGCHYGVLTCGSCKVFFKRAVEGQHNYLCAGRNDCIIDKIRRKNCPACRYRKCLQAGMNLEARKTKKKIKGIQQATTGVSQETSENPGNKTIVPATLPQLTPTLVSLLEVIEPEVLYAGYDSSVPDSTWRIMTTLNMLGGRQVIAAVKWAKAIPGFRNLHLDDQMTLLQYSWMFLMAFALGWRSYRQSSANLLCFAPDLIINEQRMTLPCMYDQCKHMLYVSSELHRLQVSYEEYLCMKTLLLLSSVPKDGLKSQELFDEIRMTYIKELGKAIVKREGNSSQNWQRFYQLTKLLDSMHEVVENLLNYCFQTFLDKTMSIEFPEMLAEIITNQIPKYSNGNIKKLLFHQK
Experiment: Human Glucocorticoid Receptor (GR) Assay, fluorescence polarization (GRhuFL_FP_v2, GR-binders)
Format: binding
Procedure: Human Glucocorticoid Receptor (GR) Assay
The assay is based on a commercial kit from Panvera/Invitrogen (Part number P2893). The assay technology is fluorescence polarization. […] The GR and Stabilizing Peptide reagents are stored at −70° C. while the GS Red is stored at −20° C. Also included in the kit are 1M DTT (Panvera, Part number P2325, stored at −20° C.) and GR Screening buffer 10× (Panvera, Part number P2814, stored at −70° C. initially but once thawed stored at room temperature). Avoid repeated freeze/thaws for all reagents. The GR Screening buffer 10× comprises 100 mM potassium phosphate, 200 mM sodium molybdate, 1 mM EDTA and 20% DMSO.
0% control was 100% DMSO and 100% control was 10 μM Dexamethasone. Background solution (8 μL; assay buffer 10×, Stabilizing Peptide, DTT and ice cold MQ water) was added to the background wells. GS Red solution (7 μL; assay buffer 10×, Stabilizing Peptide, DTT, GS Red and ice cold water) was added to all wells except background wells. GR solution (7 μL; assay buffer 10×, Stabilizing Peptide, DTT, GR and ice cold water) was added to all wells. The plate was sealed and incubated in a dark at room temperature for 2 hours.

IC50	SMILES
5.4 nM	Cc1cc(C)c(S(=O)(=O)N[C@@H](C)CNc2cccc3c2cnn3-c2cncnc2)c(C)c1 [Example 15, 2,4,6-Trimethyl-N-{(1S)-1-methyl-2-[(1-pyrimidin-5-yl-1H-indazol-4-yl)amino]ethyl}benzenesulfonamide]
54 nM	Cc1nn(C2CCCC2)c(C)c1S(=O)(=O)N[C@@H](C)COc1cccc2c1cnn2-c1cccnc1 [Example 49, 1-Cyclopentyl-3,5-dimethyl-N-{(1S)-1-methyl-2-[(1-pyridin-3-yl-1H-indazol-4-yl)oxy]ethyl}-1H-pyrazole-4-sulfonamide]
18 nM	Cc1nn([C@@H]2CCOC2)c(C)c1S(=O)(=O)N[C@@H](C)COc1cccc2c1cnn2-c1ccc(F)cc1 [Example 45, N-((1S)-2-{[1-(4-Fluorophenyl)-1H-indazol-4-yl]oxy}-1-methylethyl)-3,5-dimethyl-1-[(3R)-tetrahydrofuran-3-yl]-1H-pyrazole-4-sulfonamide]
51 nM	Cc1nn(C2CCCC2)c(C)c1S(=O)(=O)N[C@@H](C)COc1cccc2c1cnn2-c1ccc(F)cc1 [Example 48, 1-Cyclopentyl-N-((1S)-2-{[1-(4-fluorophenyl)-1H-indazol-4-yl]oxy}-1-methylethyl)-3,5-dimethyl-1H-pyrazole-4-sulfonamide]
5.5 nM	Cc1cc(C)c(S(=O)(=O)N[C@@H](C)CNc2ccc(F)c3c2cnn3-c2ccc(F)cc2)c(C)c1 [Example 33, N-((1S)-2-{[7-Fluoro-1-(4-fluoro-phenyl)-1H-indazol-4-yl]amino}-1-methylethyl)-2,4,6-trimethylbenzenesulfonamide]
15 nM	Cc1cc(C)c(S(=O)(=O)N[C@@H](C)CNc2cccc3c2cnn3-c2cccc(OC(F)(F)F)c2)c(C)c1 [Example 6, 2,4,6-Trimethyl-N-[(1S)-1-methyl-2-({1-[3-(trifluoromethoxy)phenyl]-1H-indazol-4-yl}amino)ethyl]benzenesulfonamide]
1.5 nM	Cc1n[nH]c(C)c1S(=O)(=O)N[C@@H](C)COc1cccc2c1cnn2-c1ccc(F)cc1 [Example 41, N-((1S)-2-{[1-(4-Fluorophenyl)-1H-indazol-4-yl]oxy}-1-methylethyl)-3,5-dimethyl-1H-pyrazole-4-sulfonamide]
24 nM	Cc1cc(C)c(S(=O)(=O)NCC(C)(C)Nc2cccc3c2cnn3-c2ccc(F)cc2)c(C)c1 [Example 55, N-[2-[[1-(4-Fluorophenyl)indazol-4-yl]amino]-2-methylpropyl]-2,4,6-trimethyl-benzenesulfonamide]
5.4 nM	COc1ccc(-n2ncc3c(NC[C@H](C)NS(=O)(=O)c4c(C)cc(C)cc4C)cccc32)cc1 [Example 5, N-((1S)-2-{[1-(4-Methoxyphenyl)-1H-indazol-4-yl]amino}-1-methylethyl)-2,4,6-trimethylbenzenesulfonamide]
57 nM	Cc1cc(C)c(S(=O)(=O)N[C@@H](C)CNc2cccc3c2cnn3-c2cccc(C(=O)O)c2)c(C)c1 [Example 18, 3-[4-({(2S)-2-[(2,4,6-Trimethylbenzenesulfonyl)amino]propyl}amino)-1H-indazol-1-yl]benzoic acid]
17 nM	Cc1cc(C)c(S(=O)(=O)N[C@@H](C)CCc2cccc3c2cnn3-c2cncnc2)c(C)c1 [Example 54, 2,4,6-Trimethyl-N-[(1S)-1-methyl-3-(1-pyrimidin-5-yl-1H-indazol-4-yl)propyl]benzenesulfonamide]
20 nM	Cc1ccc(-n2ncc3c(NC[C@H](C)NS(=O)(=O)c4ccccc4)cccc32)cc1 [Example 51]
5300 nM	Cc1cc(C)c(S(=O)(=O)N[C@@H](C)CNc2ncnc3c2cnn3-c2ccccc2)c(C)c1 [Example 34, 2,4,6-Trimethyl-N-{(1S)-1-methyl-2-[(1-phenyl-1H-pyrazolo[3,4-d]pyrimidin-4-yl)amino]ethyl}benzenesulfonamide]
4 nM	Cc1cc(C)c(S(=O)(=O)NC(COc2cccc3c2cnn3-c2ccc(F)cc2)C(F)(F)F)c(C)c1 (centres unmarked) [Example 4]
12 nM	Cc1nn(C2CCCC2)c(C)c1S(=O)(=O)N[C@@H](C)CNc1cccc2c1cnn2-c1ccc(OC(F)(F)F)cc1 [Example 27, 1-Cyclopentyl-3,5-dimethyl-N-[(1S)-1-methyl-2-({1-[4-(trifluoromethoxy)phenyl]-1H-indazol-4-yl}amino)ethyl]-1H-pyrazole-4-sulfonamide]
2.3 nM	Cc1cc(C)c(S(=O)(=O)N[C@@H](C)CNc2cccc3c2cnn3-c2ccc(F)nc2)c(C)c1 [Example 3, N-((1S)-2-{[1-(6-Fluoropyridin-3-yl)-1H-indazol-4-yl]amino}-1-methylethyl)-2,4,6-trimethylbenzenesulfonamide]
13 nM	Cc1nn(C(C)(C)C)c(C)c1S(=O)(=O)N[C@@H](C)COc1cccc2c1cnn2-c1ccc(F)cc1 [Example 43, 1-tert-Butyl-N-((1S)-2-[{1-(4-fluorophenyl)-1H-indazol-4-yl]oxy}-1-methylethyl)-3,5-dimethyl-1H-pyrazole-4-sulfonamide]
6.4 nM	Cc1cc(C)c(S(=O)(=O)NC[C@H](C)Nc2cccc3c2cnn3-c2ccc(F)cc2)c(C)c1 [Example 40, N-((2S)-2-{[1-(4-Fluorophenol)-1H-indazol-4-yl]amino}propyl)-2,4,6-trimethylbenzenesulfonamide]
4000 nM	Cc1n[nH]c(C)c1S(=O)(=O)N[C@@H](C)COc1cccc2c1cnn2-c1cccnc1 [Example 42, 3,5-Dimethyl-N-{(1S)-1-methyl-2-[(1-pyridin-3-yl-1H-indazol-4-yl)oxy]ethyl}-1H-pyrazole-4-sulfonamide]
5.6 nM	Cc1cc(C)c(S(=O)(=O)N[C@@H](C)CNc2cccc3c2cnn3-c2cccnc2)c(C)c1 [Example 16, 2,4,6-Trimethyl-N-{(1S)-1-methyl-2-[(1-pyridin-3-yl-1H-indazol-4-yl)amino]ethyl}benzenesulfonamide]
3.5 nM	Cc1cc(C)c(S(=O)(=O)N[C@@H](C)CNc2cccc3c2cnn3-c2ccc(Cl)cc2)c(C)c1 [Example 22, N-((1S)-2-{[1-(4-Chlorophenyl)-1H-indazol-4-yl]amino}-1-methylethyl)-2,4,6-trimethylbenzenesulfonamide]
7 nM	Cc1cc(C)c(S(=O)(=O)N[C@@H](C)CNc2cccc3c2cnn3C2CCCC2)c(C)c1 [Example 50, N-{(1S)-2-[(1-Cyclopentyl-1H-indazol-4-yl)amino]-1-methylethyl}-2,4,6-trimethylbenzene sulfonamide]
7.1 nM	Cc1cc(C)c(S(=O)(=O)N[C@@H](C)CNc2cccc3c2cnn3-c2ccnc(F)c2)c(C)c1 [Example 10, N-((1S)-2-{[1-(2-Fluoropyridin-4-yl)-1H-indazol-4-yl]amino}-1-methylethyl)-2,4,6-trimethylbenzenesulfonamide]
8.7 nM	Cc1cc(C)c(S(=O)(=O)NC[C@@H](C)Nc2cccc3c2cnn3-c2ccc(F)cc2)c(C)c1 [Example 24, N-((2R)-2-{[1-(4-Fluorophenyl)-1H-indazol-4-yl]amino}propyl)-2,4,6-trimethylbenzenesulfonamide]
4.4 nM	COCc1cccc(-n2ncc3c(NC[C@H](C)NS(=O)(=O)c4c(C)cc(C)cc4C)cccc32)c1 [Example 20, N-[(1S)-2-({1-[3-(Methoxymethyl)phenyl]-1H-indazol-4-yl}amino)-1-methylethyl]-2,4,6-trimethylbenzenesulfonamide]
3.8 nM	Cc1cccc(-n2ncc3c(NC[C@H](C)NS(=O)(=O)c4c(C)cc(C)cc4C)cccc32)c1 [Example 9, 2,4,6-Trimethyl-N-((1S)-1-methyl-2-{[1-(3-methylphenyl)-1H-indazol-4-yl]amino}ethyl)benzenesulfonamide]
